The values below are quoted from earlier work in US20120151612A1, “NON-SURGICAL APPROACH TO PREVENT AND CORRECT CRANIOFACIAL MALFORMATIONS DURING DEVELOPMENT” (UNIVERSITY OF SOUTHERN CALIFORNIA, priority 2010, published 2012).

The structures appear in SMILES notation.

This data set concerns angiotensin-mediated Tgf-β signaling. To be noted: patients of Marfan syndrome; cited from earlier work.

`CCCCc1nc(Cl)c(CO)n1Cc1ccc(-c2ccccc2-c2nn[nH]n2)cc1` [losartan]: the enlarged aorta entry is given as “prevents the enlarged aorta”.
